Reference: patent US10064865B2, “Composition comprising phosphodiesterase type 5 inhibitor for inhibiting apoptosis of nerve cells” (ARIBIO INC., priority 2012, dated 2018)
Marks after values point to notes of the source that are not given here.

Test system: neuron apoptosis-operated rats
Experiment: Example 1 body swing test
Type: in vivo, Sprague-Dawley (SD) rats
Protocol: Sensorimotor function was evaluated by use of limb placing de Ryck M et al., Stroke. 20:1383-90(1989)) and body swing (Borlongan and Sanberg, J Neurosci. 15:5372-8(1995)) tests. These tests were performed one day before neuron apoptosis to obtain a baseline and then at 1, 3, 7, 14, 21 and 28 days after neuron apoptosis. Behavioral tests were done before drug administration on days when both were scheduled. The investigator performing the surgery and behavioral assessments was blinded to treatment assignment.
Body swing tests: Animals were held approximately 2 cm from the base of its tail and elevated to an inch above a surface of a table. A swing was recorded whenever the rat moved its head out of the vertical axis to either side by more than 10° from vertical and then returned to the vertical position. Thirty total swings were counted per animal. After right-hemisphere neuron apoptosis, animals tend to swing to the contralateral (left) side. Thus, the numbers and percentages of body swings to the ipsilateral (right) side were recorded as a measure of recovery, with an intact animal scoring.
All data were expressed as mean±standard deviation (S.D.) of ten rats. Multiple comparison tests for different dose groups were conducted. Variance homogeneity was examined using the Levene test (Levene A, Clin Otalary, 1981; 6:145-51). […] Statistical analyses were conducted using SPSS (Release 14K, SPSS Inc., USA; Ludbrook, Clin Exp Pharmacol Physiol, 1997; 24:294-6). In addition, the percent changes between neuron apoptosis control and mirodenafil treated rats were calculated to help the understanding of the efficacy of test material as follow equation 3. Percentage changes as compared with neuron apoptosis control (%)=[((Data of mirodenafil treated groups−Data of neuron apoptosis control)/Data of neuron apoptosis control)×100] [EQUATION 3]

[1] = 0.5 mg/kg group, day 1 after operation (before drug administration)
[2] = 0.5 mg/kg group, day −1 (baseline)
[3] = 0.5 mg/kg s.c. once a day, day 3 after operation
[4] = 0.5 mg/kg s.c. once a day, day 7 after operation
[5] = 0.5 mg/kg s.c. once a day, day 14 after operation
[6] = 0.5 mg/kg s.c. once a day, day 21 after operation
[7] = 0.5 mg/kg s.c. once a day, day 28 after operation
[8] = 1 mg/kg group, day 1 after operation (before drug administration)
[9] = 1 mg/kg group, day −1 (baseline)
[10] = 1 mg/kg s.c. once a day, day 3 after operation
[11] = 1 mg/kg s.c. once a day, day 7 after operation
[12] = 1 mg/kg s.c. once a day, day 14 after operation
[13] = 1 mg/kg s.c. once a day, day 21 after operation
[14] = 1 mg/kg s.c. once a day, day 28 after operation
[15] = 2 mg/kg group, day 1 after operation (before drug administration)
[16] = 2 mg/kg group, day −1 (baseline)
[17] = 2 mg/kg s.c. once a day, day 3 after operation
[18] = 2 mg/kg s.c. once a day, day 7 after operation
[19] = 2 mg/kg s.c. once a day, day 14 after operation
[20] = 2 mg/kg s.c. once a day, day 21 after operation
[21] = 2 mg/kg s.c. once a day, day 28 after operation

CCCOc1ccc(S(=O)(=O)N2CCN(CCO)CC2)cc1-c1nc2c(CCC)cn(CC)c2c(=O)[nH]1 [Mirodenafil, mirodenafil]
The numbers of body swings to the ipsilateral right sides/total 30 body swings [1]: 1.40 ± 1.17^a
The percentages of body swings to the ipsilateral right sides/total 30 body swings [1]: 4.67 ± 3.91^a %
The numbers of body swings to the ipsilateral right sides/total 30 body swings [2]: 15.10 ± 0.99
The percentages of body swings to the ipsilateral right sides/total 30 body swings [2]: 50.33 ± 3.31%
The numbers of body swings to the ipsilateral right sides/total 30 body swings [3]: 2.10 ± 1.37^a
The percentages of body swings to the ipsilateral right sides/total 30 body swings [3]: 7.00 ± 4.57^a %
The numbers of body swings to the ipsilateral right sides/total 30 body swings [4]: 2.40 ± 1.26^a
The percentages of body swings to the ipsilateral right sides/total 30 body swings [4]: 8.00 ± 4.22^a %
The numbers of body swings to the ipsilateral right sides/total 30 body swings [5]: 4.20 ± 1.62^ac
The percentages of body swings to the ipsilateral right sides/total 30 body swings [5]: 14.00 ± 5.40^ac %
The numbers of body swings to the ipsilateral right sides/total 30 body swings [6]: 5.40 ± 1.26^ab
The percentages of body swings to the ipsilateral right sides/total 30 body swings [6]: 18.00 ± 4.22^ab %
The numbers of body swings to the ipsilateral right sides/total 30 body swings [7]: 6.20 ± 1.99^ac
The percentages of body swings to the ipsilateral right sides/total 30 body swings [7]: 20.67 ± 6.63^ac %
numbers and percentages of body swings to ipsilateral right sides, change as compared with neuron apoptosis control (0.5 mg/kg, 3 days after surgery): 16.67%
numbers and percentages of body swings to ipsilateral right sides, change as compared with neuron apoptosis control (0.5 mg/kg, 7 days after surgery): 9.09%
numbers and percentages of body swings to ipsilateral right sides, change as compared with neuron apoptosis control (0.5 mg/kg, 14 days after surgery): 44.83%
numbers and percentages of body swings to ipsilateral right sides, change as compared with neuron apoptosis control (0.5 mg/kg, 21 days after surgery): 50.00%
numbers and percentages of body swings to ipsilateral right sides, change as compared with neuron apoptosis control (0.5 mg/kg, 28 days after surgery): 44.19%
The numbers of body swings to the ipsilateral right sides/total 30 body swings [8]: 1.30 ± 0.95^a
The percentages of body swings to the ipsilateral right sides/total 30 body swings [8]: 4.33 ± 3.16^a %
The numbers of body swings to the ipsilateral right sides/total 30 body swings [9]: 15.10 ± 1.29
The percentages of body swings to the ipsilateral right sides/total 30 body swings [9]: 50.33 ± 4.29%
The numbers of body swings to the ipsilateral right sides/total 30 body swings [10]: 2.70 ± 0.82^a
The percentages of body swings to the ipsilateral right sides/total 30 body swings [10]: 9.00 ± 2.74^a %
The numbers of body swings to the ipsilateral right sides/total 30 body swings [11]: 3.10 ± 0.88^a
The percentages of body swings to the ipsilateral right sides/total 30 body swings [11]: 10.33 ± 2.92^a %
The numbers of body swings to the ipsilateral right sides/total 30 body swings [12]: 5.80 ± 1.23^ab
The percentages of body swings to the ipsilateral right sides/total 30 body swings [12]: 19.33 ± 4.10^ab %
The numbers of body swings to the ipsilateral right sides/total 30 body swings [13]: 7.30 ± 1.89^ab
The percentages of body swings to the ipsilateral right sides/total 30 body swings [13]: 24.33 ± 6.30^ab %
The numbers of body swings to the ipsilateral right sides/total 30 body swings [14]: 11.50 ± 1.58^ab
The percentages of body swings to the ipsilateral right sides/total 30 body swings [14]: 38.33 ± 5.27^ab %
numbers and percentages of body swings to ipsilateral right sides, change as compared with neuron apoptosis control (1 mg/kg, 3 days after surgery): 50.00%
numbers and percentages of body swings to ipsilateral right sides, change as compared with neuron apoptosis control (1 mg/kg, 7 days after surgery): 40.91%
numbers and percentages of body swings to ipsilateral right sides, change as compared with neuron apoptosis control (1 mg/kg, 14 days after surgery): 100.00%
numbers and percentages of body swings to ipsilateral right sides, change as compared with neuron apoptosis control (1 mg/kg, 21 days after surgery): 102.78%
numbers and percentages of body swings to ipsilateral right sides, change as compared with neuron apoptosis control (1 mg/kg, 28 days after surgery): 167.44%
The numbers of body swings to the ipsilateral right sides/total 30 body swings [15]: 1.20 ± 0.63^a
The percentages of body swings to the ipsilateral right sides/total 30 body swings [15]: 4.00 ± 2.11^a %
The numbers of body swings to the ipsilateral right sides/total 30 body swings [16]: 15.00 ± 1.15
The percentages of body swings to the ipsilateral right sides/total 30 body swings [16]: 50.00 ± 3.85%
The numbers of body swings to the ipsilateral right sides/total 30 body swings [17]: 3.00 ± 0.82^ac
The percentages of body swings to the ipsilateral right sides/total 30 body swings [17]: 10.00 ± 2.72^ac %
The numbers of body swings to the ipsilateral right sides/total 30 body swings [18]: 3.20 ± 0.63^ac
The percentages of body swings to the ipsilateral right sides/total 30 body swings [18]: 10.67 ± 2.11^ac %
The numbers of body swings to the ipsilateral right sides/total 30 body swings [19]: 6.00 ± 1.56^ab
The percentages of body swings to the ipsilateral right sides/total 30 body swings [19]: 20.00 ± 5.21^ab %
The numbers of body swings to the ipsilateral right sides/total 30 body swings [20]: 8.80 ± 1.23^ab
The percentages of body swings to the ipsilateral right sides/total 30 body swings [20]: 29.33 ± 4.10^ab %
The numbers of body swings to the ipsilateral right sides/total 30 body swings [21]: 11.10 ± 1.91^ab
The percentages of body swings to the ipsilateral right sides/total 30 body swings [21]: 37.00 ± 6.37^ab %
numbers and percentages of body swings to ipsilateral right sides, change as compared with neuron apoptosis control (2 mg/kg, 3 days after surgery): 66.67%
numbers and percentages of body swings to ipsilateral right sides, change as compared with neuron apoptosis control (2 mg/kg, 7 days after surgery): 45.45%
numbers and percentages of body swings to ipsilateral right sides, change as compared with neuron apoptosis control (2 mg/kg, 14 days after surgery): 106.90%
numbers and percentages of body swings to ipsilateral right sides, change as compared with neuron apoptosis control (2 mg/kg, 21 days after surgery): 144.44%
numbers and percentages of body swings to ipsilateral right sides, change as compared with neuron apoptosis control (2 mg/kg, 28 days after surgery): 158.14%
